These results are taken from the supplement of paper PMC12317010.

Structures can show the parent of a compound that is named as a salt.

A short description of the series: collision cross section in nitrogen (drift tube, single-field); higher = larger gas-phase ion size.
The mark [1] stands for this setting: ion type: [M-H], ion source: ESI, ion mode: Negative.
[2] abbreviates: ion type: [M+H], ion source: APCI, ion mode: Positive.
The mark [3] stands for this setting: ion type: [M+H], ion source: ESI, ion mode: Positive.
Setting [4] is: ion type: [M+Na], ion source: ESI, ion mode: Positive.
Setting [5] is: ion type: [M+], ion source: APCI, ion mode: Positive.
Where [6] appears, read: ion source: APCI, ion mode: Positive, ion type: [M]+ (permanent cation).
Setting [7] is: ion source: ESI, ion mode: Positive, ion type: [M]+ (permanent cation).
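Further: chemical standards at 10 µM analysed by drift tube IMS-QTOF MS in about 3.95 torr nitrogen, mean of duplicate injections differing ≤1%, mass error below 10 ppm.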

As for `CC(C)c1cccc(C(C)C)c1O` [Propofol], under setting [1], the “collision cross section in nitrogen” value was found to be 143.5 Å².

Turning to `CCCOc1nn(C(=O)NS(=O)(=O)c2ccccc2C(=O)OC)c(=O)n1C` [Propoxycarbazone-sodium], the “collision cross section in nitrogen” value under setting [1] is reported as 193.2 Å².

`CC(C)NCC(O)COc1cccc2ccccc12` (centres undefined) [Propranolol hydrochloride]: the “collision cross section in nitrogen” value under setting [2] is listed as 162.5 Å², the “collision cross section in nitrogen” value under setting [3] worked out at 162.8 Å² and the “collision cross section in nitrogen” value under setting [4] stood at 167.7 Å².

Turning to `CCCCCCCCC(=O)OCC(C)OC(=O)CCCCCCCC` (centres undefined) [Propylene glycol dipelargonate], under setting [4], the “collision cross section in nitrogen” value came to 207.9 Å².

On to `CCCOC(=O)c1ccc(O)cc1` [Propylparaben], for which the “collision cross section in nitrogen” value under setting [1] was determined as 142.9 Å².

With `C#CC(C)(C)NC(=O)c1cc(Cl)cc(Cl)c1` [Propyzamide], the “collision cross section in nitrogen” value runs as follows: under setting [2], 157.9 Å²; under setting [1], 157.3 Å².

Consider `OC(Cc1ccccc1Cl)(Cn1nc[nH]c1=S)C1(Cl)CC1` (centres undefined) [Prothioconazole], for which the “collision cross section in nitrogen” value is listed as 174.4 Å² under setting [4] and 171 Å² under setting [1].

With `O=C1c2ccccc2C(=O)c2c(O)c(O)cc(O)c21` [Purpurin], the “collision cross section in nitrogen” value under setting [1] came to 149 Å².

In the case of `CC1=NNC(=O)N(/N=C/c2cccnc2)C1` [Pymetrozine], the “collision cross section in nitrogen” value amounted to 154.8 Å² under setting [2], 154.2 Å² under setting [3] and 155.8 Å² under setting [4].

On to `COC(=O)N(OC)c1ccccc1COc1ccn(-c2ccc(Cl)cc2)n1` [Pyraclostrobin], for which the “collision cross section in nitrogen” value under setting [2] was determined as 184.5 Å², the “collision cross section in nitrogen” value under setting [3] is listed as 183.8 Å² and the “collision cross section in nitrogen” value under setting [4] amounted to 195.5 Å².

On to `CCOC(=O)COc1cc(-c2nn(C)c(OC(F)F)c2Cl)c(F)cc1Cl` [Pyraflufen-ethyl], for which the “collision cross section in nitrogen” value is, setting by setting: under setting [3], 188 Å²; under setting [4], 198.4 Å².

Turning to `CCOC(=O)c1cn2nc(OP(=S)(OCC)OCC)cc2nc1C` [Pyrazophos], the “collision cross section in nitrogen” value is, setting by setting: under setting [2], 192.5 Å²; under setting [3], 191.7 Å²; under setting [4], 195.9 Å².

With `c1cc2ccc3cccc4ccc(c1)c2c34` [Pyrene], under setting [5], the “collision cross section in nitrogen” value worked out at 136.3 Å².

Take `CC(C)(C)c1ccc(CSc2cnn(C(C)(C)C)c(=O)c2Cl)cc1` [Pyridaben]: the “collision cross section in nitrogen” value under setting [4] came out at 208.8 Å².

For `FC(F)(F)c1ccc(OCCCOc2c(Cl)cc(OCC=C(Cl)Cl)cc2Cl)nc1` [Pyridalyl], the “collision cross section in nitrogen” value under setting [2] is listed as 203 Å², the “collision cross section in nitrogen” value under setting [3] worked out at 203.8 Å² and the “collision cross section in nitrogen” value under setting [4] came to 215 Å².

For the compound `Cc1ncc(CO)c(CO)c1O` [Pyridoxine hydrochloride], the “collision cross section in nitrogen” value is 133.7 Å² under setting [2], 144 Å² under setting [4] and 133.3 Å² under setting [1].

For `Cc1ncc(CO)c(CO)c1O` [Pyridoxine], the “collision cross section in nitrogen” value turned out to be 133.7 Å² under setting [2], 134.6 Å² under setting [3] and 133.2 Å² under setting [1].

For `CCc1nc(N)nc(N)c1-c1ccc(Cl)cc1` [Pyrimethamine], the “collision cross section in nitrogen” value reads like this: under setting [2], 158.8 Å²; under setting [3], 159.4 Å².

`Cc1cc(C)nc(Nc2ccccc2)n1` [Pyrimethanil]: the “collision cross section in nitrogen” value reads like this: under setting [2], 143.4 Å²; under setting [3], 143.8 Å².

With `CC(COc1ccc(Oc2ccccc2)cc1)Oc1ccccn1` (centres undefined) [Pyriproxyfen], the “collision cross section in nitrogen” value under setting [2] came to 184.3 Å², the “collision cross section in nitrogen” value under setting [3] is listed as 184.3 Å² and the “collision cross section in nitrogen” value under setting [4] worked out at 185.4 Å².

Take `COc1cc(OC)nc(Sc2cccc(Cl)c2C(=O)O)n1` [Pyrithiobac sodium]: the “collision cross section in nitrogen” value reads like this: under setting [2], 166.7 Å²; under setting [3], 166.6 Å²; under setting [4], 173.5 Å².

Regarding `COc1cc(OC)nc(Sc2cccc(Cl)c2C(=O)O)n1` [Pyrithiobac], the “collision cross section in nitrogen” value by setting is: under setting [2], 167.1 Å²; under setting [3], 166.7 Å²; under setting [4], 173.3 Å².

On to `CCCCCCCCCCCCCCCC[N+](C)(C)CC` [Quaternium 17], for which the “collision cross section in nitrogen” value is, setting by setting: under setting [6], 196.1 Å²; under setting [7], 197.2 Å².

As to `O=c1c(O)c(-c2ccc(O)c(O)c2)oc2cc(O)cc(O)c12` [Quercetin], under setting [1], the “collision cross section in nitrogen” value is reported as 164.7 Å².

`OCCOCCN1CCN(C2=Nc3ccccc3Sc3ccccc32)CC1` [Quetiapine fumarate]: the “collision cross section in nitrogen” value is, setting by setting: under setting [2], 192.1 Å²; under setting [3], 192.3 Å²; under setting [4], 188.6 Å²; under setting [1], 183.5 Å².

Take `O=C1c2ccc(O)c(O)c2C(=O)c2c(O)ccc(O)c21` [Quinalizarin]: the “collision cross section in nitrogen” value under setting [1] worked out at 150.5 Å².

`O=C(O)c1c(Cl)ccc2cc(Cl)cnc12` [Quinclorac]: under setting [3], the “collision cross section in nitrogen” value is recorded as 142.6 Å².

For the compound `Cc1cnc2c(C(=O)O)c(Cl)ccc2c1` [Quinmerac], the “collision cross section in nitrogen” value was 139.6 Å² under setting [2], 140.7 Å² under setting [3] and 158 Å² under setting [4].

`c1ccc2ncccc2c1` [Quinoline]: the “collision cross section in nitrogen” value under setting [2] stood at 120.8 Å².

Regarding `Fc1ccc(Oc2ccnc3cc(Cl)cc(Cl)c23)cc1` [Quinoxyfen], the “collision cross section in nitrogen” value by setting is: under setting [2], 165.8 Å²; under setting [3], 165.5 Å².

Regarding `COCCCOc1ccnc(CS(=O)c2nc3ccccc3[nH]2)c1C` (centres undefined) [Rabeprazole sodium], the “collision cross section in nitrogen” value was 189.4 Å² under setting [2], 179.5 Å² under setting [4] and 187.8 Å² under setting [5].

For `O=C(c1ccc(OCCN2CCCCC2)cc1)c1c(-c2ccc(O)cc2)sc2cc(O)ccc12` [Raloxifene hydrochloride], the “collision cross section in nitrogen” value came to 215.7 Å² under setting [2], 215.2 Å² under setting [3], 220.7 Å² under setting [4] and 213.4 Å² under setting [1].

`CNC(=C[N+](=O)[O-])NCCSCc1ccc(CN(C)C)o1` [Ranitidine]: the “collision cross section in nitrogen” value came to 169.2 Å² under setting [2], 169 Å² under setting [3], 176.2 Å² under setting [4] and 179.5 Å² under setting [1].

Turning to `COC(=O)[C@H]1[C@H]2C[C@@H]3c4[nH]c5cc(OC)ccc5c4CCN3C[C@H]2C[C@@H](OC(=O)c2cc(OC)c(OC)c(OC)c2)[C@@H]1OC` [Reserpine], under setting [5], the “collision cross section in nitrogen” value amounted to 242.8 Å².

`CC(C)=CC1C(C(=O)OCc2coc(Cc3ccccc3)c2)C1(C)C` (centres undefined) [Resmethrin]: the “collision cross section in nitrogen” value under setting [4] is 177.8 Å².

In the case of `O=C(Oc1cccc(O)c1)c1ccccc1` [Resorcinol monobenzoate], the “collision cross section in nitrogen” value under setting [1] is given as 152.9 Å².

For `Oc1cccc(O)c1` [Resorcinol], the “collision cross section in nitrogen” value under setting [1] is listed as 118.9 Å².

Take `Oc1ccc(/C=C/c2cc(O)cc(O)c2)cc1` [Resveratrol]: the “collision cross section in nitrogen” value is, setting by setting: under setting [5], 155.1 Å²; under setting [1], 159.3 Å².

Take `CCNc1cc2[o+]c3cc(NCC)c(C)cc3c(-c3ccccc3C(=O)OCC)c2cc1C` [Rhodamine 6G]: the “collision cross section in nitrogen” value under setting [6] came out at 218.3 Å² and the “collision cross section in nitrogen” value under setting [7] stood at 218.9 Å².

As to `CCN(CC)c1ccc2c(-c3ccccc3C(=O)O)c3ccc(N(CC)CC)cc3[o+]c2c1` [Rhodamine B], the “collision cross section in nitrogen” value under setting [7] is 218.1 Å².

In the case of `COc1ccn(C)c(=O)c1C#N` [Ricinine], the “collision cross section in nitrogen” value came out at 132.2 Å² under setting [2], 132.4 Å² under setting [3] and 143 Å² under setting [4].

Consider `CO[C@H]1/C=C/O[C@@]2(C)Oc3c(C)c(O)c4c(O)c(c(/C=N/N5CCN(C)CC5)c(O)c4c3C2=O)NC(=O)/C(C)=C\C=C\[C@H](C)[C@H](O)[C@@H](C)[C@@H](O)[C@@H](C)[C@H](OC(C)=O)[C@@H]1C` [Rifampicin], for which the “collision cross section in nitrogen” value worked out at 282.3 Å² under setting [3] and 279 Å² under setting [4].

`O=C(CCCCCCCCc1cccnc1)N1CCC(C=C(c2ccccc2)c2ccccc2)CC1` [Ro 23-7637]: the “collision cross section in nitrogen” value by setting is: under setting [2], 239.1 Å²; under setting [3], 238 Å²; under setting [4], 242.7 Å².

Regarding `COc1cc(C(=O)NC2CCN(C)CC2)ccc1Nc1ncc2c(n1)N(C1CCCC1)CC(F)(F)C(=O)N2C` [Ro 3280], the “collision cross section in nitrogen” value came to 250.9 Å² under setting [2], 250.7 Å² under setting [3], 262.3 Å² under setting [4] and 236.7 Å² under setting [1].

Take `CS(=O)(=O)c1ccc(C2=C(c3ccccc3)C(=O)OC2)cc1` [Rofecoxib]: the “collision cross section in nitrogen” value under setting [1] is given as 174.4 Å².

For `Cn1c([N+](=O)[O-])cnc1COC(N)=O` [Ronidazole], the “collision cross section in nitrogen” value under setting [4] was found to be 143.1 Å².

Turning to `CN(CCOc1ccc(CC2SC(=O)NC2=O)cc1)c1ccccn1` (centres undefined) [Rosiglitazone maleate], the “collision cross section in nitrogen” value worked out at 172.4 Å² under setting [2], 172.5 Å² under setting [3], 182.7 Å² under setting [4] and 176.3 Å² under setting [1].

`C=C(C)[C@H]1Cc2c(ccc3c2O[C@@H]2COc4cc(OC)c(OC)cc4[C@@H]2C3=O)O1` [Rotenone]: the “collision cross section in nitrogen” value worked out at 194.8 Å² under setting [3], 207.3 Å² under setting [4] and 199 Å² under setting [1].

Take `CC[C@H]1OC(=O)[C@H](C)[C@@H](O[C@H]2C[C@@](C)(OC)[C@@H](O)[C@H](C)O2)[C@H](C)[C@@H](O[C@@H]2O[C@H](C)C[C@H](N(C)C)[C@H]2O)[C@](C)(O)C[C@@H](C)C(=NOCOCCOC)[C@H](C)[C@@H](O)[C@]1(C)O` [Roxithromycin]: the “collision cross section in nitrogen” value reads like this: under setting [2], 277.7 Å²; under setting [3], 276.9 Å²; under setting [4], 280.7 Å²; under setting [5], 276.3 Å²; under setting [1], 282.3 Å².

Regarding `C=CCC1=C(C)[C@@H](OC(=O)[C@@H]2[C@@H](C=C(C)C)C2(C)C)CC1=O` [S-Bioallethrin], the “collision cross section in nitrogen” value under setting [4] turned out to be 184.5 Å².
